The values below come from patent US20220213102A1, “DIAZEPINONE DERIVATIVES AS CAPSID ASSEMBLY MODULATORS” (Janssen Sciences Ireland Unlimited Company, priority 2019, published 2022).

In the assay the test system is HBV. Briefly: HBV replication inhibition assay (BDNA assay) in HepG2.2.15 cells. The class given is cell-based. The note with it: Hepatitis B virus, HepG2.2.15, 144 h, encapsidated HBV DNA in supernatant at day 6, BDNA QuantiGene assay. The protocol: HBV replication inhibition by the disclosed compounds were determined in cells infected or transfected with HBV or cells with stably integrated HBV, such as HepG2.2.15 cells (Sells et al. 1987). In this example, HepG2.2.15 cells were maintained in cell culture medium containing 10% fetal bovine serum (FBS), Geneticin, L-glutamine, penicillin and streptomycin. HepG2.2.15 cells were seeded in 96-well plates at a density of 40,000 cells/well and were treated with serially diluted compounds at a final DMSO concentration of 0.5% either alone or in combination by adding drugs in a checker box format. Cells were incubated with compounds for three days, after which medium was removed and fresh medium containing compounds was added to cells and incubated for another three days. At day 6, supernatant was removed and treated with DNase at 37° C. for 60 minutes, followed by enzyme inactivation at 75° C. for 15 minutes. Encapsidated HBV DNA was released from the virions and covalently linked HBV polymerase by incubating in lysis buffer (Affymetrix QS0010) containing 2.5 μg proteinase K at 50° C. for 40 minutes. HBV DNA was denatured by addition of 0.2 M NaOH and detected using a branched DNA (BDNA) QuantiGene assay kit according to manufacturer recommendation (Affymetrix). HBV DNA levels were also quantified using qPCR, based on amplification of encapsidated HBV DNA extraction with QuickExtraction Solution (Epicentre Biotechnologies) and amplification of HBV DNA using HBV specific PCR probes that can hybridize to HBV DNA and a fluorescently labeled probe for quantitation. In addition, cell viability of HepG2.2.15 cells incubated with test compounds alone or in combination was determined by using CellTitre-Glo reagent according to the manufacturer protocol (Promega). The mean background signal from wells containing only culture medium was subtracted from all other samples, and percent inhibition at each compound concentration was calculated by normalizing to signals from HepG2.2.15 cells treated with 0.5% DMSO using equation E1.
% inhibition=(DMSOave−Xi)/DMSOave×100% E1:
where DMSOave is the mean signal calculated from the wells that were treated with DMSO control (0% inhibition control) and Xi is the signal measured from the individual wells. EC50 values, effective concentrations that achieved 50% inhibitory effect, were determined by non-linear fitting using Graphpad Prism software (San Diego, Calif.) and equation E2.
Y=Ymin+(Ymax−Ymin)/(1+10(Log EC50−X)×HillSlope) E2:
where Y represents percent inhibition values and X represents the logarithm of compound concentrations.
Selected disclosed compounds were assayed in the HBV replication assay (BDNA assay), as described above, and a representative group of these active compounds is shown in Table 3.
As a reminder, the EC50 is the concentration giving half of the maximal effect. Take `CN1CC(F)(c2ccccc2)Cn2nc3c(c2C1=O)CN(C(=O)Nc1ccc(F)c(C#N)c1)CC3` (stereo not shown) [Example 16, N-(3-Cyano-4-fluorophenyl)-8-fluoro-10-methyl-11-oxo-8-phenyl-3,4,8,9,10,11-hexahydro-1H-pyrido[4′,3′:3,4]pyrazolo[1,5-a][1,4]diazepine-2(7H)-carboxamide]: the EC50 is 176 nM.

Take `CN1CC(c2nnn[nH]2)Cn2nc3c(c2C1=O)CN(C(=O)Nc1ccc(F)c(C#N)c1)CC3` (stereo not shown) [Example 3, N-(3-Cyano-4-fluorophenyl)-10-methyl-11-oxo-8-(1H-tetrazol-5-yl)-3,4,8,9,10,11-hexahydro-1H-pyrido[4′,3′:3,4]pyrazolo[1,5-a][1,4]diazepine-2(7H)-carboxamide]: the EC50 is more than 4000 nM.

With `CN1CC(c2ccnn2C)Cn2nc3c(c2C1=O)CN(C(=O)Nc1ccc(F)c(C#N)c1)CC3` (stereo not shown) [Example 6, N-(3-Cyano-4-fluorophenyl)-10-methyl-8-(1-methyl-1H-pyrazol-5-yl)-11-oxo-3,4,8,9,10,11-hexahydro-1H-pyrido[4′,3′:3,4]pyrazolo[1,5-a][1,4]diazepine-2(7H)-carboxamide], the 50% effective concentration (EC50) was found to be 83 nM.

Regarding `CN1CC(c2nc[nH]n2)Cn2nc3c(c2C1=O)CN(C(=O)Nc1ccc(F)c(C#N)c1)CC3` (stereo not shown) [Example 1, N-(3-Cyano-4-fluorophenyl)-10-methyl-11-oxo-8-(1H-1,2,4-triazol-3-yl)-3,4,8,9,10,11-hexahydro-1H-pyrido[4′,3′:3,4]pyrazolo[1,5-a][1,4]diazepine-2(7H)-carboxamide], the half-maximal effective concentration (EC50) was more than 4000 nM.

Take `CN1CC(c2cc[nH]n2)Cn2nc3c(c2C1=O)CN(C(=O)Nc1ccc(F)c(Cl)c1)CC3` (stereo not shown) [Example 4, N-(3-Chloro-4-fluorophenyl)-10-methyl-11-oxo-8-(1H-pyrazol-3-yl)-3,4,8,9,10,11-hexahydro-1H-pyrido[4′,3′:3,4]pyrazolo[1,5-a][1,4]diazepine-2(7H)-carboxamide]: the EC50 is 93 nM.

For `CN1CC(c2ncno2)Cn2nc3c(c2C1=O)CN(C(=O)Nc1ccc(F)c(C#N)c1)CC3` (stereo not shown) [Example 2, N-(3-Cyano-4-fluorophenyl)-10-methyl-8-(1,2,4-oxadiazol-5-yl)-11-oxo-3,4,8,9,10,11-hexahydro-1H-pyrido[4′,3′:3,4]pyrazolo[1,5-a][1,4]diazepine-2(7H)-carboxamide], the EC50 is more than 4000 nM.

With `CN1CC(O)(c2ccccc2)Cn2nc3c(c2C1=O)CN(C(=O)Nc1ccc(F)c(C#N)c1)CC3` (stereo not shown) [Example 15, N-(3-Cyano-4-fluoro-phenyl)-11-hydroxy-13-methyl-14-oxo-11-phenyl-4,8,9,13-tetrazatricyclo[7.5.0.0^2,7]tetradeca-1,7-diene-4-carboxamide], the EC50 was 140 nM.
